Legend:
[1] = target: Carbonic anhydrase 9 (Homo sapiens, UniProt Q16790)
Description: Inhibition of human carbonic anhydrase 9 assessed as inhibition constant incubated for 15 mins prior to testing by phenol red based stopped-flow CO2 hydration assay

[2] = test system: T47D; experiment: Antiproliferative activity against human T47D cells assessed as cell growth inhibition incubated for 4 hrs under hypoxia condition by MTT colorimetric assay; assay type: functional, cell-based
[3] = test system: MCF7; experiment: Antiproliferative activity against human MCF7 cells assessed as cell growth inhibition incubated for 4 hrs under hypoxia condition by MTT colorimetric assay; assay type: functional, cell-based; conditions: MCF7, 4 h
[4] = test system: T47D; experiment: Antiproliferative activity against human T47D cells assessed as cell growth inhibition incubated for 4 hrs under normoxia condition by MTT colorimetric assay; assay type: functional, cell-based
[5] = test system: MCF7; experiment: Antiproliferative activity against human MCF7 cells assessed as cell growth inhibition incubated for 4 hrs under normoxia condition by MTT colorimetric assay; assay type: functional, cell-based; conditions: MCF7, 4 h

Row | Structure (SMILES) | Ki [1] [µM] | other results
1 | NS(=O)(=O)c1ccccc1NCCC(=O)c1ccccc1 | 0.313 | –
2 | NS(=O)(=O)c1ccc(NNCCC(=O)c2ccccc2)cc1 | 0.0825 | –
3 | NS(=O)(=O)c1ccc(CCNCCC(=O)c2ccccc2)cc1 | 0.0879 | –
4 | NS(=O)(=O)c1cccc(NCCC(=O)c2ccccc2)c1 | 0.0757 | –
5 | NS(=O)(=O)c1ccc(NCC/C(=N\O)c2ccccc2)cc1 | 0.0538 | –
6 | NS(=O)(=O)c1ccccc1NCCC(=O)c1ccc2ccccc2c1 | 0.945 | –
7 | NS(=O)(=O)c1ccc(NNCCC(=O)c2ccc3ccccc3c2)cc1 | 0.0667 | –
8 | COc1cccc2c1C(=O)c1c(O)c3c(c(O)c1C2=O)C[C@@](O)(C(=O)CO)C[C@@H]3O[C@H]1C[C@H](N)[C@H](O)[C@H](C)O1 [DOXORUBICIN] | – | IC50 [2]: 3.8 µM; IC50 [4]: 3.2 µM

The remaining compounds from weak to strong by Ki [1], led by results:

Row | Ki [1] [µM] | Structure (SMILES) | other results
9 | 0.0515 | NS(=O)(=O)c1ccc(NCCC(=O)c2ccccc2)cc1 | –
10 | 0.0453 | NS(=O)(=O)c1ccc(C(=O)NNCCC(=O)c2ccccc2)cc1 | –
11 | 0.0387 | NS(=O)(=O)c1cccc(NCCC(=O)c2ccc3ccccc3c2)c1 | –
12 | 0.0363 | NS(=O)(=O)c1ccc(C(=O)NNCCC(=O)c2ccc3ccccc3c2)cc1 | –
13 | 0.0102 | NS(=O)(=O)c1ccc(NCC/C(=N/CCO)c2ccccc2)cc1 | IC50 [2]: 10.9 µM; IC50 [3]: 5.7 µM; IC50 [4]: 43.1 µM; IC50 [5]: 29.3 µM
14 | 0.0094 | NS(=O)(=O)c1ccc(NCCC(=O)c2ccc3ccccc3c2)cc1 | IC50 [2]: 19 µM; IC50 [3]: 7.5 µM; IC50 [4]: > 100 µM; IC50 [5]: 55.1 µM
